Patent US20090042878A1, “THIENOPYRIMIDYLAMINES AS MODULATORS OF THE EP2 RECEPTOR” (priority 2007, published 2009)

Tests used:
cumulus-oocyte complexes = assay: cumulus expansion assay in vitro; assay type: cell-based, mice; conditions: competing with natural EP2 receptor agonist PGE2
Experimental: Folliculogenesis is induced in immature female mice at an age of 14-18 days by a single dose (intraperitoneal) of 10 I.U. of PMSG (Pregnant Mare Serum Gonadotropin; Sigma G-4877, Lot 68H0909). 47-50 hours after the injection, the ovaries are removed and the cumulus-oocyte complexes are removed. The cumulus complex is not yet expanded at this stage.
The cumulus-oocyte complexes are then incubated with prostaglandin E2 (PGE2) (1 μM), vehicle control (ethanol) or test substances for 20-24 hours. Medium: alpha-MEM medium with 0.1 mM IBMX, pyruvates (0.23 mM) glutamines (2 mM), pen/strep 100 IU/ml pen. and 100 μg/ml strep. and HSA (8 mg/ml). Cumulus expansion is then established through the division into four stages (according to Vanderhyden et al. Dev Biol. 1990 August; 140(2):307-317).

[1] = molecular target: T1, human prostaglandin E2 (subtype EP2) receptor (Homo sapiens, UniProt P43116); assay: cAMP antagonism test (HTRF cAMP detection, PGE2 stimulation); assay type: cell-based; conditions: in presence of PGE2
T1 construct: host or cells: cells in a cell culture plate
Experimental: (§1) The binding of PGE2 to the EP2 subtype of the human PGE2 receptor induces activation of membrane-associated adenylate cyclases and leads to the formation of cAMP. In the presence of the phosphodiesterase inhibitor IBMX, cAMP which has accumulated due to this stimulation and been released by cell lysis is employed in a competitive detection method. In this assay, the cAMP in the lysate competes with cAMP-XL665 for binding of an Eu cryptate-labelled anti-cAMP antibody.
(§2) The two signals are measured in a suitable measuring instrument with a time lag, i.e. after the background fluorescence has declined.
(§3) The substance solutions (0.75 μl) introduced into an assay plate and 30% DMSO are dissolved in 16 μl of a KRSB+IBMX stimulation solution (1× Krebs-Ringer Bicarbonate Buffer; Sigma-Aldrich #K-4002; including 750 μM 3-isobutyl-1-methylxanthine Sigma-Aldrich #I-7018), and then 15 μl thereof are transferred into a media-free cell culture plate which has been washed with KRSB shortly beforehand.
After preincubation at room temperature (RT) for 30 minutes, 5 μl of a 4×PGE2 solution (11 nM) are added, and incubation is carried out in the presence of the agonist at RT for a further 60 min (volume: ˜20 μl) before the reaction is then stopped by adding 5 μl of lysis buffer and incubated at RT for a further 20 min (volume: ˜25 μl). The cell lysate is then transferred into a measuring plate and measured in accordance with the manufacturer's information (cyclic AMP kit Cisbio International #62AMPPEC).

[2] = molecular target: T1, human prostaglandin E2 (subtype EP2) receptor; assay: cellular agonism test (cAMP); assay type: cell-based
Experimental: as §1, §2, §3
After incubation at room temperature (RT; volume: ˜15 μl) for 60 minutes, the reaction is then stopped by adding 5 μl of lysis buffer and incubated at RT for a further 20 min (volume: ˜20 μl). The cell lysate is then transferred into a measuring plate and measured in accordance with the manufacturer's instructions (cyclic AMP kit Cisbio International #62AMPPEC).

T1 sequence (P43116 whole entry): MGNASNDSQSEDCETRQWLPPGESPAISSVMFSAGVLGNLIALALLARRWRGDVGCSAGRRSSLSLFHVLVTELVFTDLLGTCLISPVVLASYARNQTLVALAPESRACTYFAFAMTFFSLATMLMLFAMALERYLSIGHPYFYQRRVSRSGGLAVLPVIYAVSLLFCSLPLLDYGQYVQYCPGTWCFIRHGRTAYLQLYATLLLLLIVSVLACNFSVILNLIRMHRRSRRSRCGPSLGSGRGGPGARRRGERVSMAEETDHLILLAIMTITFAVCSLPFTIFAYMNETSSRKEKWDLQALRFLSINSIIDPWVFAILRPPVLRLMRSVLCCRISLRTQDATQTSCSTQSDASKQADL

IC50 [1] [µM]	SMILES	further results
	CC(C)Oc1ccc2c(=O)c3cc(C(=O)O)ccc3oc2c1 [AH 6809, reference compound]	suppression of cumulus expansion (cumulus-oocyte complexes): approx. 30%
	Oc1ccc(CCNc2ncnc3cc(-c4ccccc4)sc23)cc1 [Example 9, 4-[2-(6-Phenylthieno[3,2-d]pyrimidin-4-ylamino)ethyl]phenol]	suppression of cumulus expansion (cumulus-oocyte complexes; 10 μM): 45%
0.61	c1cnc2ccc(-c3cc4ncnc(NCc5ccc6c(c5)OCO6)c4s3)cc2c1 [Example 57, Benzo[1,3]dioxol-5-ylmethyl-(6-quinolin-6-yl-thieno[3,2-d]pyrimidin-4-yl)amine]	
0.46	CC(=O)Nc1cccc(-c2cc3ncnc(NCc4ccc5c(c4)OCO5)c3s2)c1 [Example 69, N-(3-{4-[(Benzo[1,3]dioxol-5-ylmethyl)amino]thieno[3,2-d]pyrimidin-6-yl}phenyl)acetamide]	effect in the cellular agonism test [2]: no inhibition
0.31	COc1ccc(CNc2ncnc3cc(-c4cccc(NC(C)=O)c4)sc23)cc1 [Example 90, N-{3-[4-(4-Methoxybenzylamino)thieno[3,2-d]pyrimidin-6-yl]phenyl}acetamide]	
